# Assay results as given in EP3725756A2, “COMPOSITIONS WITH IMPROVED UREASE-INHIBITING EFFECT COMPRISING AMINES, OR COLORANTS, AND AN ADDUCT OF THE THREE COMPOUNDS N-(N-BUTYL) THIOPHOSPHORIC ACID TRIAMIDE (NBPT), UREA, AND FORMALDEHYDE” (BASF SE, priority 2019, dated 2020).
# Test: physchem
# Type: physicochemical
# Procedure: "Not dissociable" means that the pKa value (logarithmic measure of the acid dissociation constant) for the reaction alcohol (D) → deprotonated alcohol (D) + H^+ of the hydroxy group in the neutral aqueous phase is more than 9.9, more preferably more than 11, most preferably more than 12, particularly preferably more than 13, for example more than 14 as measured in de-ionized water at 25° C and atmospheric pressure.
structure (smiles),measurement,value
"CC(O)CO (stereo not shown) [propane-1,2-diol]",pKa,14.9
